PubChem BioAssay (NCI)
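Results reflect a 48-hour exposure of cells in 96-well plates to compound at five concentrations. GI50 marks 50% less growth. TGI: total growth inhibition.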

Key:
Experiment in all cases: DTP human tumour cell line panel, 48 h
SW-620 colon = test system: SW-620 colon
HOP-92 NSCLC = test system: HOP-92 NSCLC
RPMI-8226 leukemia = test system: RPMI-8226 leukemia
NCI-H522 lung = test system: NCI-H522 lung
LOX IMVI melanoma = test system: LOX IMVI melanoma
MDA-N = test system: MDA-N
U251 CNS = test system: U251 CNS
MALME-3M melanoma = test system: MALME-3M melanoma
UACC-257 melanoma = test system: UACC-257 melanoma
MCF7 breast = test system: MCF7 breast

SMILES	TGI (SW-620 colon)	TGI (HOP-92 NSCLC)	TGI (RPMI-8226 leukemia)	TGI (NCI-H522 lung)	TGI (LOX IMVI melanoma)	TGI (MDA-N)	TGI (U251 CNS)	TGI (MALME-3M melanoma)	TGI (UACC-257 melanoma)	GI50 (SW-620 colon)	GI50 (HOP-92 NSCLC)	GI50 (RPMI-8226 leukemia)	GI50 (NCI-H522 lung)	GI50 (LOX IMVI melanoma)	GI50 (U251 CNS)	GI50 (MCF7 breast)	TGI (MCF7 breast)	GI50 (MALME-3M melanoma)	GI50 (UACC-257 melanoma)
c1cc2c(cc1C1=NCCN1)c1cc(C3=NCCN3)ccc1n2CC1CCCCC1	> 100 µM	47.9 µM	> 100 µM	21.6 µM	39.7 µM	> 100 µM	22.9 µM	23.8 µM	59.3 µM										
C=C(C)[C@@H]1CC[C@]2(C(=O)NC(C)=O)CC[C@]3(C)[C@H](CC[C@@H]4[C@@]5(C)CCCNC(C)(C)[C@@H]5CC[C@]43C)[C@@H]12	3.07 µM	2.89 µM	3.4 µM	3.56 µM	2.48 µM		3.26 µM	2.65 µM	3.75 µM	1.53 µM	1.33 µM	1.18 µM	1.66 µM	1.18 µM	1.68 µM	1.41 µM	3 µM	1.34 µM	1.95 µM
C=C(C)[C@@H]1CC[C@]2(CO)CC[C@]3(C)[C@H](CC[C@@H]4[C@@]5(C)CC[C@H](NCO)C(C)(C)[C@@H]5CC[C@]43C)[C@@H]12	1.96 µM	1.6 µM	2.5 µM	2.01 µM				1.53 µM	1.91 µM	0.948 µM	0.783 µM	0.934 µM	1.03 µM			0.794 µM	1.61 µM	0.792 µM	0.935 µM
CC(C)=NOC(=O)Nc1cccc2c1OCO2	> 100 µM	> 100 µM	> 100 µM	> 100 µM	> 100 µM		> 100 µM	> 100 µM	> 100 µM								> 100 µM		
O=C1CC(c2ccccc2)S(=O)c2ccccc2N1 (stereo not given)			> 100 µM	> 100 µM	> 100 µM		> 100 µM	> 100 µM	> 100 µM								> 100 µM		
CCN(CC)CCO[Si](OCCN(CC)CC)(OCCN(CC)CC)OCCN(CC)CC	> 100 µM				> 100 µM		> 100 µM	> 100 µM	> 100 µM										
COc1ccc(-c2n/c(=C\c3c(O)[nH]c4ccccc34)cc3c2=Nc2ccccc2-3)cc1	2.31 µM		6.87 µM	2.3 µM	2.88 µM		2.76 µM		6.97 µM	1.11 µM		2.35 µM	1.06 µM	1.55 µM	1.45 µM	1.28 µM	2.75 µM		2.19 µM
CC1(C)CC(=O)C2=C(C1)OC1(CC2c2ccc(Cl)cc2)CC(c2ccc(Cl)cc2)C2=C(CC(C)(C)CC2=O)O1 (stereo not given)	61.2 µM	25.7 µM	28.5 µM	27.6 µM	64.2 µM		> 57.6 µM	30.1 µM	> 61.7 µM								> 100 µM		
O=C(CCC1CCCCN1)Nc1ccc2c(c1)C(=O)c1ccc(NC(=O)CCN3CCCCC3)cc1C2=O (stereo not given)		5.98 µM			2.66 µM		23.8 µM	2.81 µM	2.94 µM										
CCOC(C)OC1CC(n2cc(C)c(=O)[nH]c2=O)OC1CO (stereo not given)	> 100 µM	> 100 µM	> 100 µM	> 100 µM	> 100 µM		> 100 µM	> 100 µM	> 100 µM										
C(=C/c1nc2ccccc2o1)/c1ccc2c(c1)OCO2	> 100 µM	69.7 µM	> 100 µM	51.3 µM	> 47.8 µM		42.1 µM	> 95.9 µM	> 100 µM								> 79.8 µM		
CC1OC(=O)C(C(C)C)NC(=O)C(C(C)C)OC(=O)C(C(C)C)NC(=O)C(C)OC(=O)C(C(C)C)NC(=O)C(C(C)C)OC(=O)C(C(C)C)NC(=O)C(C)OC(=O)C(C(C)C)NC(=O)C(C(C)C)OC(=O)C(C(C)C)NC1=O (stereo not given)	4.85 µM		0.0158 µM	< 0.0001 µM			1.05 µM	3.63 µM	0.145 µM	< 0.0001 µM	< 0.0001 µM		< 0.0001 µM	< 0.0001 µM	< 0.0001 µM		0.0686 µM		
O=C(Nc1ccc(Cl)cc1)c1cc(S(=O)(=O)Nc2n[nH]c(=O)n2-c2ccccc2)c(S)cc1Cl	> 100 µM	> 100 µM	> 100 µM		> 100 µM		> 100 µM	> 100 µM	> 100 µM								> 100 µM		
CN1CCC2(CC1)C(=NC1CCCCC1)NC(=O)N2c1ccccc1	> 100 µM	> 100 µM	> 100 µM				> 100 µM	> 100 µM	> 100 µM								> 100 µM		
COc1ccc(C2=NC(c3ccc(Cl)cc3)C(c3ccc(Cl)cc3)N2C(=O)N2CCNC(=O)C2)c(OC(C)C)c1 (stereo not given)	6.12 µM	4.06 µM	> 10 µM	4.09 µM	3.33 µM		3.57 µM		4.84 µM	2.41 µM	2.1 µM	3.58 µM	2.09 µM	1.78 µM	1.84 µM	2.06 µM	4.16 µM		2.64 µM
